Experimental findings from ChEMBL document CHEMBL1137883, “Synthesis and vasorelaxant properties of hybrid molecules out of NO-donors and the beta-receptor blocking drug propranolol” (2004) are described below.

The species named for assay [1] is Sus scrofa. Kind of assay: Concentration required for relaxation of PGF2-alpha (3 uM)-precontracted porcine pulmonary arteries; activity expressed as pD2.
For assay [2], the species on record is Sus scrofa. Kind of assay: Concentration required for relaxation of isolated porcine coronary arteries; activity expressed as pD2. The assay is classed as functional.

Turning to `CC(C)N(CC(O)COc1cccc2ccccc12)C(=O)C(C)(C)CO[N+](=O)[O-]` (centres undefined), in assay [1], the pD2 turned out to be 5.4. In assay [1], `CC(C)(CO[N+](=O)[O-])C(=O)O` yielded a pD2 of 4.69. In assay [1], `CC(=O)N[C@@H](C(=O)N(CC(O)COc1cccc2ccccc12)C(C)C)C(C)(C)SN=O` (some centres undefined) registered a pD2 of 6.94. In assay [2], `CC(=O)N[C@@H](C(=O)O)C(C)(C)SN=O` had a pD2 of 6.69.
